Numbers after ± are expanded uncertainties.
Assay: molar heat capacity at constant volume; wn = mass fraction of the nth substance listed
Conditions: Liquid, Vacuum adiabatic calorimetry, w2 = 0.5111

FC(F)C(F)(F)F [pentafluoroethane] + FCF
Conditions	molar heat capacity at constant volume [J/K/mol]
312.15 K, 15662 kPa	65.26 ± 2.1
313.15 K, 16243 kPa	66.7 ± 2.2
313.15 K, 16259 kPa	66.2 ± 2.2
313.15 K, 16286 kPa	65.26 ± 2.1
314.15 K, 16869 kPa	66.2 ± 2.2
314.15 K, 16883 kPa	65.98 ± 2.2
314.15 K, 16910 kPa	65.26 ± 2.1
315.15 K, 17493 kPa	65.77 ± 2.2
315.15 K, 17507 kPa	65.84 ± 2.2
315.15 K, 17534 kPa	64.54 ± 2.1
316.15 K, 18118 kPa	65.77 ± 2.1
316.15 K, 18131 kPa	65.12 ± 2.1
316.15 K, 18158 kPa	64.9 ± 2.1
317.15 K, 18743 kPa	65.48 ± 2.1
317.15 K, 18755 kPa	64.33 ± 2.1
317.15 K, 18781 kPa	64.47 ± 2.1
318.15 K, 19367 kPa	64.97 ± 2.1
318.15 K, 19379 kPa	64.9 ± 2.1
318.15 K, 19404 kPa	64.25 ± 2.1
319.15 K, 19990 kPa	65.05 ± 2.1
319.15 K, 20003 kPa	65.12 ± 2.1
319.15 K, 20027 kPa	64.61 ± 2.1
320.15 K, 20613 kPa	63.75 ± 2.1
320.15 K, 20627 kPa	65.77 ± 2.1
320.15 K, 20649 kPa	64.33 ± 2.1
321.15 K, 21236 kPa	64.69 ± 2.1
321.15 K, 21250 kPa	64.69 ± 2.1
321.15 K, 21272 kPa	63.61 ± 2.1
322.15 K, 21858 kPa	64.69 ± 2.1
322.15 K, 21873 kPa	63.9 ± 2.1
322.15 K, 21894 kPa	64.04 ± 2.1
323.15 K, 22480 kPa	63.9 ± 2.1
323.15 K, 22495 kPa	63.9 ± 2.1
323.15 K, 22516 kPa	63.61 ± 2
324.15 K, 23103 kPa	64.33 ± 2.1
324.15 K, 23117 kPa	64.97 ± 2.1
324.15 K, 23137 kPa	62.6 ± 2.1
325.15 K, 23725 kPa	64.25 ± 2.1
325.15 K, 23738 kPa	63.39 ± 2
325.15 K, 23758 kPa	63.1 ± 2
326.15 K, 24347 kPa	64.33 ± 2.1
326.15 K, 24361 kPa	64.9 ± 2.1
326.15 K, 24379 kPa	62.74 ± 2.1
327.15 K, 24970 kPa	63.75 ± 2
327.15 K, 24981 kPa	63.1 ± 2
327.15 K, 25000 kPa	63.68 ± 2
328.15 K, 25590 kPa	62.96 ± 2
328.15 K, 25601 kPa	63.1 ± 2
328.15 K, 25620 kPa	62.17 ± 2

— the NIST ThermoML archive (doi:10.1007/s10765-008-0535-5)
